{"source": "patent US10526336B2", "about": "“Fused heteroaryl derivatives as orexin receptor antagonists” (Merck Sharp & Dohme Corp., priority 2014, dated 2020)", "data": [{"biological_target": "human orexin-2 receptor (Homo sapiens (Human), UniProt O43614)", "sequence (O43614 whole entry)": "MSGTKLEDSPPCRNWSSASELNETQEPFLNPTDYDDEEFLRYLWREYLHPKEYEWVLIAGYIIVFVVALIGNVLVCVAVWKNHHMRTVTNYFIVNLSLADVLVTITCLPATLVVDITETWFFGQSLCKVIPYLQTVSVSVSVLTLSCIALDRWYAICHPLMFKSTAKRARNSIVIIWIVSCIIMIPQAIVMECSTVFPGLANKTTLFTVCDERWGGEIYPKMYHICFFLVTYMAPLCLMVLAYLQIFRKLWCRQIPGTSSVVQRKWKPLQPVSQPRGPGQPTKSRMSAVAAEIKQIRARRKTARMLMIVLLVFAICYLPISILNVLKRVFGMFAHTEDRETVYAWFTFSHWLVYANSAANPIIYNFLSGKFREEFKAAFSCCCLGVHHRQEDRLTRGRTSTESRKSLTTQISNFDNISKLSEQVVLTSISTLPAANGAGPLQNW", "assay": "FLIPR Ca2+ Flux Assay, orexin-2 receptor antagonism in CHO cells", "assay_type": "cell-based", "conditions": "CHO cells expressing the human orexin-2 receptor; agonist 70 pM Ala-6,12 orexin-A; read-out: hOX2 FLIPR IC50", "method_in_brief": "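CHO cells expressing rat OX1R or human OX2R, Fluo-4AM loaded, given compounds for 5 min, then challenged with 70 pM Ala-6,12 human orexin-A in HBSS/HEPES/BSA/probenecid, pH 7.4. FLIPR calcium fluorescence recorded 5 min; peak height versus agonist-alone gives IC50.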", "units": {"IC50": "nM"}, "values": [{"smiles": "Cc1cnn2ccnc(O[C@@H]3CC[C@@H](C)N(C(=O)c4ccccc4-n4nccn4)C3)c12", "note": "[Example 89, (2-(2H-1,2,3-triazol-2-yl)phenyl)((2R,5R)-2-methyl-5-((3-methylpyrazolo[1,5-a]pyrazin-4-yl)oxy)piperidin-1-yl)methanone]", "IC50": 19.2}, {"smiles": "C[C@@H]1CC[C@@H](Oc2cccn3nccc23)CN1C(=O)c1ccccc1-n1nccn1", "note": "[Example 90, (2-(2H-1,2,3-triazol-2-yl)phenyl)((2R,5R)-2-methyl-5-(pyrazolo[1,5-a]pyridin-4-yloxy)piperidin-1-yl)methanone]", "IC50": 125}, {"smiles": "C[C@@H]1CC[C@@H](Oc2ccnc3ocnc23)CN1C(=O)c1ccccc1-n1nccn1", "note": "[Example 91, (2-(2H-1,2,3-triazol-2-yl)phenyl)((2R,5R)-2-methyl-5-(oxazolo[5,4-b]pyridin-7-yloxy)piperidin-1-yl)methanone]", "IC50": 16.3}, {"smiles": "C[C@@H]1CC[C@@H](Oc2ccnc3ocnc23)CN1C(=O)c1ccccc1-n1ncnn1", "note": "[Example 92, (2-(2H-tetrazol-2-yl)phenyl)((2R,5R)-2-methyl-5-(oxazolo [5,4-b]pyridin-7-yloxy)piperidin-1-yl)methanone]", "IC50": 36.7}, {"smiles": "COC(=O)c1ccccc1C(=O)N1C[C@H](Oc2ccnc3ocnc23)CC[C@H]1C", "note": "[Example 93, methyl 2-((2R,5R)-2-methyl-5-(oxazolo[5,4-b]pyridin-7-yloxy)piperidine-1-carbonyl)benzoate]", "IC50": 46.4}, {"smiles": "CCOc1ccccc1C(=O)N1C[C@H](Oc2ccnc3ocnc23)CC[C@H]1C", "note": "[Example 94, (2-ethoxyphenyl)((2R,5R)-2-methyl-5-(oxazolo[5,4-b]pyridin-7-yloxy)piperidin-1-yl)methanone]", "IC50": 24.4}, {"smiles": "C[C@@H]1CC[C@@H](Oc2nccc3c2cnn3C)CN1C(=O)c1ccccc1-n1nccn1", "note": "[Example 95, (2-(2H-1,2,3-triazol-2-yl)phenyl)((2R,5R)-2-methyl-5-((1-methyl-1H-pyrazolo[4,3-c]pyridin-4-yl)oxy)piperidin-1-yl)methanone]", "IC50": 17.8}, {"smiles": "C[C@@H]1CC[C@@H](Nc2nccc3c2cnn3C)CN1C(=O)c1ccccc1-n1nccn1", "note": "[Example 96, (2-(2H-1,2,3-triazol-2-yl)phenyl)((2R,5R)-2-methyl-5-((1-methyl-1H-pyrazolo[4,3-c]pyridin-4-yl)amino)piperidin-1-yl)methanone]", "IC50": 60}, {"smiles": "C[C@@H]1CC[C@@H](Nc2nccc3nn(C)cc23)CN1C(=O)c1ccccc1-n1nccn1", "note": "[Example 97, (2-(2H-1,2,3-triazol-2-yl)phenyl)((2R,5R)-2-methyl-5-((2-methyl-2H-pyrazolo[4,3-c]pyridin-4-yl)amino)piperidin-1-yl) methanone]", "IC50": 124}, {"smiles": "C[C@@H]1CC[C@@H](Oc2nccc3c2ncn3C)CN1C(=O)c1ccccc1-n1nccn1", "note": "[Example 98, (2-(2H-1,2,3-triazol-2-yl)phenyl)((2R,5R)-2-methyl-5-((1-methyl-1H-imidazo[4,5-c]pyridin-4-yl)oxy)piperidin-1-yl)methanone]", "IC50": 28.8}, {"smiles": "C[C@@H]1CC[C@@H](Oc2nccc3ncn(C)c23)CN1C(=O)c1ccccc1-n1nccn1", "note": "[Example 99, (2-(2H-1,2,3-triazol-2-yl)phenyl)((2R,5R)-2-methyl-5-((3-methyl-3H-imidazo[4,5-c]pyridin-4-yl)oxy)piperidin-1-yl)methanone]", "IC50": 42.3}, {"smiles": "C[C@@H]1CC[C@@H](Nc2nccc3ncn(C)c23)CN1C(=O)c1ccccc1-n1nccn1", "note": "[Example 100, (2-(2H-1,2,3-triazol-2-yl)phenyl)((2R,5R)-2-methyl-5-((3-methyl-3H-imidazo[4,5-c]pyridin-4-yl)amino)piperidin-1-yl)methanone]", "IC50": 95.8}, {"smiles": "C[C@@H]1CC[C@@H](Nc2nccc3c2ncn3C)CN1C(=O)c1ccccc1-n1nccn1", "note": "[Example 101, (2-(2H-1,2,3-triazol-2-yl)phenyl)((2R,5R)-2-methyl-5-((1-methyl-1H-imidazo[4,5-c]pyridin-4-yl)amino)piperidin-1-yl)methanone]", "IC50": 38.5}]}]}
